Measured values taken from the NIST ThermoML archive (doi:10.1016/j.jct.2004.12.004).

Assay: mn = molality of the nth substance listed, in mol/kg
Conditions: 350 kPa, Liquid, Extra sensitive DSC

OC[C@H]1O[C@@H](O[C@H]2[C@H](O)[C@@H](O)[C@H](O)O[C@@H]2CO)[C@H](O)[C@@H](O)[C@@H]1O [D-cellobiose] + O
apparent molar heat capacity [J/K/mol]
Conditions	m1 = 0.03222	m1 = 0.05175	m1 = 0.07986	m1 = 0.09996	m1 = 0.1501	m1 = 0.3084
278.15 K	562.9	563	562	561.2	563	566.4
283.15 K	593	592.8	591.5	590.9	592	594.5
288.15 K	619.4	618.8	617.3	616.9	617.5	619.6
293.15 K	641.7	641.1	639.4	639.2	639.5	641.1
298.15 K	661.3	660.7	658.6	658.8	658.7	660.1
303.15 K	678.3	677.8	675.4	676.2	675.7	676.9
308.15 K	693.2	692.9	690.6	691.5	690.9	691.8
313.15 K	706.5	706.5	704.1	705	704.3	705.1
318.15 K	718.8	718.9	716.6	717.5	716.7	717.3
323.15 K	730	730.1	728	728.9	728.1	728.5
328.15 K	740.4	740.7	738.6	739.5	738.7	739
333.15 K	750.3	750.6	748.6	749.5	748.7	748.9
338.15 K	759.6	759.9	758	758.9	758.1	758.3
343.15 K	768.2	768.6	766.7	767.6	766.7	766.9
348.15 K	776.4	776.6	774.8	775.8	774.9	775
353.15 K	783.8	784.2	782.5	783.5	782.6	782.7
358.15 K	791.1	791.5	789.8	790.8	789.9	789.9
363.15 K	797.8	798.3	796.7	797.8	796.8	796.8
368.15 K	803.8	804.6	803	804.1	803.1	803.1
373.15 K	809.8	810.7	809	810.1	809.2	809.1
378.15 K	815	816.2	814.6	815.8	814.7	814.7
383.15 K	819.8	821.3	819.7	821.4	820	819.9
388.15 K	823	825.3	824.1	827.6	824.9	824.8
393.15 K	826.1	828.7	827.9	833	829.1	829.2
